Measured values taken from US20260055126A1, “SMALL MOLECULE COMPOUNDS WITH PHOSPHORYLATED ARYL STRUCTURES AND USE THEREOF” (HANGZHOU PHECDAMED CO., LTD., priority 2022, published 2026).
Like-named read-outs stand apart in the source and are kept apart here.

Experiments:
[1] = system: recombinant TEAD1 protein (194-411, Uniprot ID: P28347); test: Thermal shift assay (protein melting point curve), TEAD1; format: binding; design: key to the marks not given beside the values; details: 10 μM TEAD protein, 50 μM test compound
Description: (§1) The ability of the compounds to increase the melting point of purified recombinant TEAD1/2/3/4 proteins is tested using a thermal shift assay. The strength of the compound's binding to the protein and the selectivity of the compound's binding to the four TEAD subtypes are evaluated by calculating the melting point shift ΔTm−° C. […] Based on the Δ Tm value, the ability of the compound to bind to the TEAD protein is divided into four levels: ++++, +++, ++, +.
(§2) Test method of protein melting point curve: 10 μL of the protein melting point curve experimental system (10 μM TEAD protein, 50 μM test compound, SYPRO® orange (55692, sigma)) is prepared in a 384-well fluorescence quantitative PCR plate according to the following system, and reacted at 4° C. in the dark for 20 minutes. On-machine reaction: ABI QuantStudio Dx fluorescence quantitative PCR instrument; program: from 25° C. to 80° C., increasing the temperature at a rate of 0.05° C./s, and reading the fluorescence channel signal of the corresponding wavelength of SYPRO® orange every second.

[2] = biological target: recombinant TEAD2 protein (218-447, Uniprot ID: Q15562) (Homo sapiens (Human), UniProt Q15562); test: Thermal shift assay (protein melting point curve), TEAD2; format: binding; details: 10 μM TEAD protein, 50 μM test compound
recombinant TEAD2 protein (218-447, Uniprot ID: Q15562), sequence (Q15562 218-447): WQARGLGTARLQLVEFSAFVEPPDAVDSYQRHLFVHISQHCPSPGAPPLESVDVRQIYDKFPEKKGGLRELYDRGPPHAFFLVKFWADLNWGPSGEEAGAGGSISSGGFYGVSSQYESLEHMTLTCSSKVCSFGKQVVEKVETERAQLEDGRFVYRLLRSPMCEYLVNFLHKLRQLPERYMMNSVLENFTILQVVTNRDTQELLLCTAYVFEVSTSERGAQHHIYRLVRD
Description: as §1, §2

[3] = biological target: recombinant TEAD3 protein (218-435, Uniprot ID: Q99594) (Homo sapiens (Human), UniProt Q99594); test: Thermal shift assay (protein melting point curve), TEAD3; format: binding; details: 10 μM TEAD protein, 50 μM test compound
recombinant TEAD3 protein (218-435, Uniprot ID: Q99594), sequence (Q99594 218-435): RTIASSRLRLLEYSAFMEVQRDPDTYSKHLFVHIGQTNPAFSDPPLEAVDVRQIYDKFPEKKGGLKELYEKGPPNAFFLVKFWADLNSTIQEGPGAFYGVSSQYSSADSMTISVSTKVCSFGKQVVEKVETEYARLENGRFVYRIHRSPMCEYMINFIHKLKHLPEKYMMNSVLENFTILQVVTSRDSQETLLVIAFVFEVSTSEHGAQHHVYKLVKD
Description: as §1, §2

[4] = biological target: recombinant TEAD4 protein (217-434, Uniprot ID: Q15561) (Homo sapiens (Human), UniProt Q15561); test: Thermal shift assay (protein melting point curve), TEAD4; format: binding; details: 10 μM TEAD protein, 50 μM test compound
recombinant TEAD4 protein (217-434, Uniprot ID: Q15561), sequence (Q15561 217-434): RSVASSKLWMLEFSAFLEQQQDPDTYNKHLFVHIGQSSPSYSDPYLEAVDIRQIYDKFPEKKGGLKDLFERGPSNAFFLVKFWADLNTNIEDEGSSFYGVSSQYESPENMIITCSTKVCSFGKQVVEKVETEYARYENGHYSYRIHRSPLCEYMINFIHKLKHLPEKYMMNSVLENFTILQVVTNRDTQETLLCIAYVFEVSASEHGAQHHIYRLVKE
Description: as §1, §2

TEAD family proteins = test: Thermal shift assay, summary over all TEAD subtypes; format: binding; details: summary of Table 1
Description: as §1, §2

[5] = biological target: recombinant TEAD1 protein central pocket (Homo sapiens (Human), UniProt P28347); test: Competitive thiol binding assay (CPM assay), TEAD1; details: 150 nM recombinant TEAD protein, 150 nM CPM
recombinant TEAD1 protein central pocket, sequence (P28347 whole entry): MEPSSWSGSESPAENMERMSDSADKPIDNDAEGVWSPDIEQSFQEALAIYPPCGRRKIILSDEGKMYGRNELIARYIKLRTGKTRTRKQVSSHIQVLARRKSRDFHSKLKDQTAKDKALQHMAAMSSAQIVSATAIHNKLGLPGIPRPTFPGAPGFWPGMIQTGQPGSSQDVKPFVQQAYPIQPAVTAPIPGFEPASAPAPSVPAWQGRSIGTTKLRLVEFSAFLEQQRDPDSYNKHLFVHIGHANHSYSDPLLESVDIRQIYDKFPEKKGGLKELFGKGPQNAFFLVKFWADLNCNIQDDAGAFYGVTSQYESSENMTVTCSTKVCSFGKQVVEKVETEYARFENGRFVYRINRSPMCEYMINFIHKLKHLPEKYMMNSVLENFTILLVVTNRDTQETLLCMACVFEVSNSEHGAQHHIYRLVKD
Description: (§3) Diluting the tested compound in gradient to 5 uL with buffer (25 mM HEPES, 150 mM NaCl, pH6.5), then adding 5 μL of the newly prepared 0.45 uM recombinant TEAD protein solution, and incubating at room temperature for 10 minutes. […] After shaking the plate at room temperature for 1 hour, measuring the fluorescence intensity (Ex/Em: 380/470 nm).

[6] = biological target: recombinant TEAD2 protein central pocket (Homo sapiens (Human), UniProt Q15562); test: Competitive thiol binding assay (CPM assay), TEAD2; details: 150 nM recombinant TEAD protein, 150 nM CPM
recombinant TEAD2 protein central pocket, sequence (Q15562 whole entry): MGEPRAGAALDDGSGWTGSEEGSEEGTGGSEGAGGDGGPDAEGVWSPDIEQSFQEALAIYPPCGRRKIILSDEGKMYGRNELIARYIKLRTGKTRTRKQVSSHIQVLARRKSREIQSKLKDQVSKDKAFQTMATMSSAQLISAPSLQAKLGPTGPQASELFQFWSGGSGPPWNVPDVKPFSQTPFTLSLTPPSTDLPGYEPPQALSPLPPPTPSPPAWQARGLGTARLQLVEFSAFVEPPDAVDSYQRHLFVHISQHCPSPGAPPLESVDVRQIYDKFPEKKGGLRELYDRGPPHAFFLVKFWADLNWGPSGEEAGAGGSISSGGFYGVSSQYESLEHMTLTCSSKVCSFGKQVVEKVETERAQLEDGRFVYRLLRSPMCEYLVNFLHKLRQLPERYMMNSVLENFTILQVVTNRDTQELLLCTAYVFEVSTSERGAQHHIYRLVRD
Description: as §3

[7] = biological target: recombinant TEAD4 protein central pocket (Homo sapiens (Human), UniProt Q15561); test: Competitive thiol binding assay (CPM assay), TEAD4; details: 150 nM recombinant TEAD protein, 150 nM CPM
recombinant TEAD4 protein central pocket, sequence (Q15561 whole entry): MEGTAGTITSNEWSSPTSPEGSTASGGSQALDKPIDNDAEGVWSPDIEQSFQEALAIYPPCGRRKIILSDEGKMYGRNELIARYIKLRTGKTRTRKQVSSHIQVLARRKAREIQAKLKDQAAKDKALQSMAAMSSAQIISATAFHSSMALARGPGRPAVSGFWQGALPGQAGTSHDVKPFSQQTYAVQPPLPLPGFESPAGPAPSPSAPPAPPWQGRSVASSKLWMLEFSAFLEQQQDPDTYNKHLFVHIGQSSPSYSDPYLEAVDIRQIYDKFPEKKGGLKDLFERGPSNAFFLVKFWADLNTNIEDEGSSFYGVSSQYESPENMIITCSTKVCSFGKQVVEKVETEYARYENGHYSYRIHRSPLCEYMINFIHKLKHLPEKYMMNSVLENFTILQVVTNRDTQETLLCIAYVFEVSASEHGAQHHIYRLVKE
Description: as §3

[8] = biological target: recombinant TEAD3 protein central pocket (Homo sapiens (Human), UniProt Q99594); test: Competitive thiol binding assay (CPM assay), TEAD3; details: 150 nM recombinant TEAD protein, 150 nM CPM
recombinant TEAD3 protein central pocket, sequence (Q99594 whole entry): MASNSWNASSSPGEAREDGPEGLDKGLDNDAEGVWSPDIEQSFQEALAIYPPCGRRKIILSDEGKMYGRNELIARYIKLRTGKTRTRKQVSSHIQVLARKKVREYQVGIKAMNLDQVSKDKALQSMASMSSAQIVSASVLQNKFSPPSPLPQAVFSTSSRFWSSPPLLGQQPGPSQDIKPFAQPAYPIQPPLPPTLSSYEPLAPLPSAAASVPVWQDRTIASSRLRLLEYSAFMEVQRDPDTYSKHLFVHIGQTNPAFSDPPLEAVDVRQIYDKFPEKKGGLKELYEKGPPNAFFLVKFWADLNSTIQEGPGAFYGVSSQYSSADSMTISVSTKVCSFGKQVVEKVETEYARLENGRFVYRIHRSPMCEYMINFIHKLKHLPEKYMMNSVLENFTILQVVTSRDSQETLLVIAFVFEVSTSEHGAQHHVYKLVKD
Description: as §3

[9] = Mouse plasma pharmacokinetic test; format: in vivo, CD-1 mice; details: CD-1, mouse, plasma, VT103 in mice
Excerpt: In this example, different compounds are used to perform a mouse pharmacokinetic experiment, and the specific steps are as follows: Animal information: CD-1 mice, male, about 20 g, purchase from Beijing Weitonglihua Experimental Animal Technology Co., Ltd.
Animal dietary status: Animals are not fasted before administration and allowed to drink water freely.
Compound preparation method: for intragastric administration (IG)(G1 group), preparing with 0.5% CMC-Na, and for intravenous injection(IV) (G2 group), preparing 5% DMSO+30% PEG400+65% water. […]
Sampling time points of G1 group: 8 points in total, namely 10 min, 30 min, 1 h, 2 h, 4 h, 6 h, 8 h and 24 h after administration, among them, animals G1M01-G1M03 are sampled at 3 time points, namely 10 min, 1 h and 6 h; animals G1M04-G1M06 are sampled at 3 time points, namely 30 min, 2 h and 8 h; animals G1M07-G1M09 are sampled at 2 time points, namely 4 h and 24 h.
Sampling time points of G2 group: 9 points in total, namely 5 min, 10 min, 30 min, 1 h, 2 h, 4 h, 6 h, 8 h, 24 h after administration. It is recommended that animals G2M01-G2M03 are sampled at 3 time points, namely 5 min, 1 h, and 6 h; animals G2M04-G2M06 are sampled at 3 time points, namely 10 min, 2 h, and 8 h; animals G2M07-G2M09 are sampled at 3 time points, namely 30 min, 4 h, and 24 h.
Sample collection: On the day of the experiment, collecting approximately 0.1 mL of whole blood samples at each preset time point and placing in EDTA-K2 anticoagulant tubes.
Sample processing: Within 30 minutes after whole blood sample collection, centrifuging at 4° C., 12,000 rpm for 5 minutes to separate plasma, collecting the upper plasma sample into a sample tube, and freezing the plasma sample in a −10˜−30° C. refrigerator within 30 minutes and transferring to a −60˜−90° C. refrigerator within 24 hours.
Sample testing and data processing: LC/MS/MS testing, WinNonlin for fitting and pharmacokinetic parameter calculation.

Row | Δ T m (TEAD2) [2] | Δ T m (TEAD3) [3] | Δ T m (TEAD4) [4] | binding ability to each subtype of TEAD family proteins (TEAD family proteins) | IC50 [5] [µM] | IC50 [6] [µM] | IC50 [7] [µM] | IC50 [8] [µM] | concentration at 24 h ([9]; oral, IG 7 mg/kg, converted from ng/ml, read-out: blood concentration after 24 hours) [nM] | bioavailability ([9]; po, 7 mg/kg) [%] | concentration at 24 h ([9]; 7 mg/kg oral/IG, read-out: plasma drug concentration after 24 hours C24h) [ng/mL] | clearance ([9]; IV) [mL/min/kg] | half-life ([9]; IV) [h] | Vd ([9]; IV, read-out: VSS) [L/kg] | Cmax ([9]; per oral (PO) 7 mg/kg, read-out: Cmax) [ng/mL] | Structure (SMILES) | Δ T m (TEAD1) [1]
1 | ++++ | +++ | ++++ | good binding abilities | 0.2 | 0.31 | 0.11 |  |  |  |  |  |  |  |  | O=P1(c2ccc(Nc3ccc(C(F)(F)F)cc3)c(-c3ncccn3)c2)CC(CO)C1 (stereo not shown) [Compound 21] | ++++
2 | ++++ | +++ | ++++ | good binding abilities | 0.34 | 0.53 | 0.22 | 0.71 |  |  |  |  |  |  |  | CCP(=O)(CC)c1ccc(Nc2ccc(C(F)(F)F)cc2)c(-c2cn(C)cn2)c1 [Compound 76] | ++++
3 |  |  |  |  | 1.2 | 0.88 | 2.5 | 2.7 | 828 | 75 | 340 | 4.7 | 13.2 | 4.5 | 896 | CNS(=O)(=O)c1ccc(Nc2ccc(C(F)(F)F)cc2)c(-c2cn(C)cn2)c1 [VT103, reference compound] | 
